# Assays:
# MCF-7 cells [1] = assay: Antiproliferative activity, MTT assay, MCF-7; type: cell-based, human; conditions: for IC50: Homo sapiens, MCF7, MTT, mean ± SD of at least three independent experiments
# Procedure: (§1) The antiproliferative effect of monothiooxalamides 1a–d and 2a–d was assessed in MCF-7 (human breast cancer cell line with estrogen, progesterone, and glucocorticoid receptors), MDA-MB-231 (triple-negative human breast cancer), MCF-10A (non-tumorigenic human mammary epithelial cell line), and NIH/3T3 (mouse fibroblast). The cytotoxicity is expressed as IC50 values in micromolar concentrations, Table 4. […] In contrast, the cytotoxic effect on triple-negative cells MDA-MB-231 was similar to that observed in MCF-10A. […] Nevertheless, it is worth considering that NIH/3T3 are mouse fibroblasts, while the other three cell lines are human cells; therefore, the physiological differences between both species could play an essential role in the exerted effect. Several studies have evaluated 2-aminobenzothiazole derivatives against various cell lines. The targets of this kind of compounds are wide, including HDAC6, tyrosine kinase receptors family (CSF1R kinase, EGFR kinase, VEGFR-2 kinase, FAK kinase), serine/threonine kinases, lysine-specific demethylase (LSD1), phosphoinositide 3-kinase (PI3K), topoisomerases (I and II), Heat shock protein (HSP90), p53, nuclear receptor binding set (NSD1), microsomal prostaglandin E synthase-1 (mPGES-1), and also as chelators of metal ions, which are necessaries for critical biological processes such as gene expression, oxygen transport, and cell respiration. In all cases, the IC50 values were reported in a wide range, from 1 nM to 50 µM. On the other hand, our research group reported a family of MTAs containing 2-aminopyridine, with an activity range of 0.19–18 µM against several human cancer cell lines (A2780-wt, A2780-cis-MSTO-211H, and HT-29). […] Whereas 1c could be a feasible candidate to obtain better results compared with 1a, 2a–c, which were highly cytotoxic to non-tumorigenic cells. As a perspective, the synergic activity of 1c, in combination with antioxidants like curcumin, resveratrol, and quercetin, could also be explored, with the aim to sensitize cancer cells against cytotoxic agents and diminish their toxicity in non-tumorigenic cells. In contrast, MTX, which is an antineoplastic drug, is widely used for many kinds of cancer treatments, including breast cancer. Their mechanism of action is related to the inhibition of dihydrofolate reductase (DHFR). […] Nevertheless, MTX exerted an undesirable effect on NIH/3T3 cells. Although the compounds were not better than MTX, their antiproliferative effect was similar to 2ABT, thioureas, 3-carboxy-coumarin sulfonamides, pyrimethamine conjugates, and N-hydroxycinnamide analogs. Highlighting its low toxicity to non-tumor cells, 1c might be a better option than methotrexate to reduce adverse side effects associated with chemotherapy.
# (§2) MDA-MB-231 adenocarcinoma cell line was procured from ATCC (CRM-HTB-26TM). […] Cell culture was performed in the appropriate medium for each cell line (MCF-7, MDA-MB-231, MCF-10A, and NIH/3T3). MCF-7, MDA-MB-231, and NIH/3T3 cells were grown in Dulbecco’s modified Eagle Medium (DMEM) high-glucose with phenol red, supplemented with fetal bovine serum inactivated by heat (10%) (BioWest, Miami, FL, USA) and antibiotic (100 U/mL penicillin and […] streptomycin). MCF-10A were grown in DMEM-F12 medium, supplemented with 5% of horse serum inactivated by heat (Biowest, Miami, FL, USA), […] of insulin, 20 ng/mL of epidermal growth factor, 500 ng/mL hydrocortisone, and antibiotic (100 U/mL penicillin and […] streptomycin). All cell lines were incubated at 37 °C with 5% CO2 after reaching 80% confluence at 24 h. The cells were seeded in a 96-well cell culture plate (10,000 cells/well). After incubation, the cells were treated with compounds (1a–1d and 2a–2d) at varying concentrations (100, 50, 25, 12.5, and 6.25 µM) and then incubated for 42 h under standard conditions. […]
# MDA-MB-231 cells [2] = assay: Antiproliferative activity, MTT assay, MDA-MB-231; type: cell-based; conditions: Homo sapiens, mean ± SD of at least three independent experiments
# Procedure: as §1, §2
# MDA-MB-231 cells [3] = assay: Wound closure (cell migration) assay; type: cell-based, human; conditions: MDA-MB-231, treated at IC50 concentration; for wound closure rate: 0-48 h; for maximum wound closure: 48 h
# Procedure: The triple-negative cancer, produced by MDA-MB-231 cells, is highly invasive and metastatic, capable of migrating to other tissues. […] The wound closure begins at 12 h, at this time, there is a significant difference between cells treated with compound 1c and MTX compared with non-treated cells. Nevertheless, the maximum effect is observed at 48 h, when wound closure is complete for non-treated cells. For cells treated with compound 1c, the maximum wound closure was 51%, while for the reference drug, MTX, it was 38% at 48 h. In both cases, there is a significant difference from the control, with wound closure rates of −2.0 ± 0.1 (R = 0.98), −1.0 ± 0.1 (R = 0.94), and −0.7 ± 0.1 (0.88) in %area/h for control, 1c, and MTX, respectively. The results confirmed the capability of 1c to prevent cell migration in MDA-MB-231 cells, similar to the reference drug MTX, and other reported BTs.
# The wound closure assay was performed according to the reported methods on MDA-MB-231 cell line. For this purpose, cells (2 × 10^5) were seeded in complete medium on a 24-well plate and incubated for 24 h under standard conditions. After that, the wound gap was made by scratching the cell monolayer with a 200 µL pipette tip. Cell debris and exhausted medium were discarded, washed with PBS, and the medium was replaced. […] The wound closure was monitored by microscopy at 12, 24, and 48 h, and the wound area was measured in duplicate in three independent experiments using ImageJ (1.54k) software. The results were expressed as a percentage of the control (cell culture medium with 0.1% DMSO).
# MCF-10A cells = assay: Antiproliferative activity, MTT assay, MCF-10A; type: cell-based; conditions: Homo sapiens, non-tumorigenic cells, mean ± SD
# Procedure: as §1, §2
# MDA-MB-231 cells [4] = assay: Annexin V apoptosis induction assay, MDA-MB-231; type: cell-based, human; conditions: MDA-MB-231, IC50 concentration, 48 h
# Description: (§3) Apoptosis induction is one of the most common mechanisms of cell death exerted by antineoplastic drugs. This is because cancer cells can evade this cell death mechanism, allowing malignant cells to survive and leading to tumor progression. Apoptosis involves several physiological cell modifications, including the destabilization of the phospholipid bilayer and the subsequent exposure of phosphatidylserine. This phospholipid can be easily recognized by annexin V, a protein that is useful for identifying apoptotic cells. Therefore, apoptosis was determined for both breast cancer human cell lines, MCF-7 and MDA-MB-231, and the NIH/3T3 non-tumoral cell line. […] Regarding non-malignant fibroblast cells (NIH/3T3), a slight decrease in live cells was observed only for compound 1c (60%) compared to the control (81%) and MTX (72%), as shown in Figure 12.
# The annexin V cytometry assay was performed on malignant cells (MCF-7 and MDA-MB-231) and non-malignant cells (NIH/3T3) using the Annexin V-FITC Apoptosis Detection kit (Santa Cruz Biotechnology). The corresponding cells were seeded in a 12-well plate as previously described and incubated under standard conditions (1.5 × 10^5 cells/well). After 24 h of incubation, the exhausted medium was replaced, and cells were treated at the IC50 concentration for compound 1c and MTX. After 48 h, the exhausted medium was recovered for cytometric measurements, and the cells were trypsinized, inactivated with DMEM, centrifuged, washed with PBS and centrifuged (1500 rpm, 5 min, 4 °C). The PBS was removed, and the remainder was drained on gauze. The formed pellet was shaken with 300 µL of the buffer from the flow cytometry kit (Miltenyi Biotec, Bergisch Gladbach, Germany), which had previously been prepared at a concentration of 1%. The sample was left to incubate for 15 min at room temperature, protected from light, and then 100 µL aliquots were taken to the flow cytometry equipment (BD FACSAria Fusion, Franklin Lakes, NJ, USA). Five microliters of annexin and two microliters of propidium iodide (100 µg/mL) were added to the reaction with the cells. […]
# MCF-7 cells [5] = assay: Annexin V apoptosis induction assay, MCF-7; type: cell-based, human; conditions: MCF-7, IC50 concentration, 48 h
# Description: as §3
# (§4) The annexin V cytometry assay was performed on malignant cells (MCF-7 and MDA-MB-231) and non-malignant cells (NIH/3T3) using the Annexin V-FITC Apoptosis Detection kit (Santa Cruz Biotechnology). The corresponding cells were seeded in a 12-well plate as previously described and incubated under standard conditions (1.5 × 10^5 cells/well). After 24 h of incubation, the exhausted medium was replaced, and cells were treated at the IC50 concentration for compound 1c and MTX. […]
# NIH/3T3 cells [6] = assay: Annexin V apoptosis induction assay, NIH/3T3; type: cell-based, mouse; conditions: NIH/3T3, IC50 concentration, 48 h; control 81%
# Description: as §3, §4
# NIH/3T3 cells [7] = assay: Antiproliferative activity, MTT assay, NIH/3T3; type: cell-based; conditions: NIH3T3, mouse fibroblast, mean ± SD
# Procedure: as §1
# as §2, with “streptomycin).” for “streptomycin). All cell lines were incubated at 37 °C with 5% CO2 after reaching 80% confluence at 24 h. The cells were seeded in a 96-well cell culture plate (10,000 cells/well). After incubation, the cells were treated with compounds (1a–1d and 2a–2d) at varying concentrations (100, 50, 25, 12.5, and 6.25 µM) and then incubated for 42 h under standard conditions.”
IC50 (MCF-7 cells [1]) [µM],IC50 (MDA-MB-231 cells [2]) [µM],Compound,wound closure rate (MDA-MB-231 cells [3]) [%area/h],maximum wound closure (MDA-MB-231 cells [3]) [%],IC50 (MCF-10A cells) [µM],effect on cell viability (MDA-MB-231 cells [4]),"selectivity toward malignant cells, fold more active in MCF-7 than in MCF-10A (MCF-7 cells [1]; MCF-7 vs MCF-10A) [fold]",fold more active on MCF-7 cells than on MDA-MB-231 cells (MCF-7 cells [1]; MCF-7 vs MDA-MB-231) [fold],late apoptosis cell population (MCF-7 cells [5]),live cells (NIH/3T3 cells [6]) [%],IC50 (NIH/3T3 cells [7]) [µM],percentage of late apoptotic cells (MDA-MB-231 cells [4]; non-treated cells 14%) [%]
> 100,> 100,"COc1ccccc1CNC(=S)C(=O)Nc1nc2ccc(C)cc2s1 [2b, 2-((2-methoxybenzyl)amino)-N-(6-methylbenzo[d]thiazol-2-yl)-2-thioxoacetamide]",,,42 ± 5,,,,,,,
72 ± 9,> 100,"Cc1ccc2nc(NC(=O)C(=S)NCc3ccccc3)sc2c1 [2a, 2-(benzylamino)-N-(6-methylbenzo[d]thiazol-2-yl)-2-thioxoacetamide]",,,43 ± 6,,,,,,22 ± 4,
> 100,> 100,"Cc1ccc2nc(NC(=O)C(=S)NCCc3ccccc3)sc2c1 [2d, N-(6-methylbenzo[d]thiazol-2-yl)-2-(phenethylamino)-2-thioxoacetamide]",,,,,,,,,,
88 ± 6,> 100,"COc1ccc(CNC(=S)C(=O)Nc2nc3ccc(C)cc3s2)cc1 [2c, 2-((4-methoxybenzyl)amino)-N-(6-methylbenzo[d]thiazol-2-yl)-2-thioxoacetamide]",,,74 ± 12,,,,,,31 ± 6,

# The next lines start with the molecule.
Compound,IC50 (MCF-7 cells [1]) [µM],IC50 (MDA-MB-231 cells [2]) [µM],wound closure rate (MDA-MB-231 cells [3]) [%area/h],maximum wound closure (MDA-MB-231 cells [3]) [%],IC50 (MCF-10A cells) [µM],effect on cell viability (MDA-MB-231 cells [4]),"selectivity toward malignant cells, fold more active in MCF-7 than in MCF-10A (MCF-7 cells [1]; MCF-7 vs MCF-10A) [fold]",fold more active on MCF-7 cells than on MDA-MB-231 cells (MCF-7 cells [1]; MCF-7 vs MDA-MB-231) [fold],late apoptosis cell population (MCF-7 cells [5]),live cells (NIH/3T3 cells [6]) [%],IC50 (NIH/3T3 cells [7]) [µM],percentage of late apoptotic cells (MDA-MB-231 cells [4]; non-treated cells 14%) [%]
"COc1ccccc1CNC(=S)C(=O)Nc1nc2ccccc2s1 [1b, N-(benzo[d]thiazol-2-yl)-2-((2-methoxybenzyl)amino)-2-thioxoacetamide]",> 100,> 100,,,,,,,,,,
"COc1ccc(CNC(=S)C(=O)Nc2nc3ccccc3s2)cc1 [1c, N-(benzo[d]thiazol-2-yl)-2-((4-methoxybenzyl)amino)-2-thioxoacetamide]",32 ± 5,52 ± 8,−1.0 ± 0.1,51,55 ± 6,did not show a significant effect,1.7,1.6,significant increase,60,41 ± 5,
"O=C(Nc1nc2ccccc2s1)C(=S)NCCc1ccccc1 [1d, N-(benzo[d]thiazol-2-yl)-2-(phenethylamino)-2-thioxoacetamide]",> 100,> 100,,,,,,,,,,
"O=C(Nc1nc2ccccc2s1)C(=S)NCc1ccccc1 [1a, N-(benzo[d]thiazol-2-yl)-2-(benzylamino)-2-thioxoacetamide]",95 ± 13,72 ± 7,,,44 ± 6,,,,,,29 ± 6,
"CN(Cc1cnc2nc(N)nc(N)c2n1)c1ccc(C(=O)N[C@@H](CCC(=O)O)C(=O)O)cc1 [MTX, methotrexate, reference compound]",0.8 ± 0.1,28 ± 3,−0.7 ± 0.1,38,14 ± 3,did not show a significant effect,,,significant increase,72,26 ± 5,9

# Reference: paper PMC12429841, “Monothiooxalamide–Benzothiazole Hybrids: Predictive Docking on HDAC6, Synthesis, Molecular Structure, and Antiproliferative Activity on Breast Cancer Cells” (International Journal of Molecular Sciences, 2025)
